Data published in patent US20250041330A1, “METHOD OF TREATING OBESITY BY SELECTIVE TARGETING OF VISCERAL ADIPOSITY USING POLYCATION NANOMEDICINE” (THE TRUSTEES OF COLUMBIA UNIVERSITY IN THE CITY OF NEW YORK, priority 2022, published 2025).

Tested on: 3T3-L1 cells
Assay: 3T3-L1 adipocyte differentiation (lipid staining, qPCR)
Type: cell-based, mouse
Details: NMN 20 mM with P-G3 10 μg/ml, day 0-3 of differentiation
Protocol: 3T3-L1 (ATCC CL-173) and C3H10T1/2 (CCL-226) cells were purchased from ATCC and cultured in high glucose DMEM supplemented with 10% calf serum (CS, Gemini Bio-Products 100-506) or FBS (heat-inactivated, Corning 35-011-CV), and 1× Pen Strep (Thermo Fisher). Cells were differentiated in the standard adipogenic cocktail after reaching confluence for 2 days. The cocktail contains DMEM, 10% FBS, 1 μM dexamethasone (DEX), 10 μg/ml insulin and 0.5 mM 3-isobutyl-1-methylxanthine (IBMX). 5 μM Rosiglitazone was used in the first two days to facilitate C3H10T1/2 cells' differentiation. After induction for two days, cells were maintained in a complete medium containing 2.5 μg/ml insulin until fully differentiated. P-G3 polymers or NPs (10 μg/ml) were added at indicated times, and cells were harvested during differentiation for analyses. Lipid droplets were visualized using Oil Red O staining or BODIPY staining. 3T3-L1 cells were treated with rapamycin (100 nM) from Day 4 to Day 6. […]
Total RNA from tissues or cells was extracted by using the TriZol reagent (Thermo Fisher) in combination with an RNA isolation kit from Macherey-Nagel. […] Bio-Rad CFX96 Real-Time PCR system was used to perform quantitative real-time PCR (qPCR) with goTaq qPCR Master Mix (Promega). The relative gene expression was calculated by using the ΔΔCt method with Cyclophilin A or Rpl23 as the reference gene. […]

## NC(=O)c1ccc[n+]([C@@H]2O[C@H](COP(=O)([O-])O)[C@@H](O)[C@H]2O)c1 [NMN, nicotinamide mononucleotide]
  effect on P-G3's pro-adipogenic effect: counteracted the pro-adipogenic effect of P-G3
